# Measurements reported in patent publication US12390437B2, “Itaconic acid derivatives and uses thereof intreating an inflammatory disease or a disease associated with an undesirable immune response” (Sitryx Therapeutics Limited, priority 2019, dated 2025).
# Test system: not listed separately
# Assay: Mouse pharmacokinetic study, oral administration
# Format: in vivo
# Conditions: male, C57BL/6, po; mouse plasma, Example 112 dosed orally at 100 mg/kg (Intermediate 8 = metabolite), time 0.083 h; read-out: Example 112 and Intermediate 8 concentrations following oral administration
# Protocol: Pharmacokinetic studies were carried out in 6-8-week-old male C57BL/6 mice having free access to food and water. Intravenous dosing was conducted at 10 mg/kg (5 mL/kg; vehicle: 10% DMSO-90% (25% HP-13-CD in water)) via tail vein injection, with sampling at 3 min, 8 min, 15 min, 30 min, 1, 2, 4, 6 and 8 hours, i.e., 9 time points in total (N=3/time point), using semi-serial bleeding for plasma. Oral compound administration, via gavage, was carried out at 100 mg/kg (10 mL/kg; vehicle: 5% DMSO-95% (0.5% HPMC+0.1% Tween 80 in water)), with sampling at 5 min, 15 min, 30 min, 1, 2, 4, 6, 8 and 24 hours, i.e., 9 time points in total (N=3/time point), using semi-serial bleeding for plasma.
# For both intravenous and oral routes, the mice were restrained manually at the designated time points, with ca. 110 μL of blood being taken into K2EDTA tubes via the facial vein. Blood samples were put on ice and centrifuged to obtain plasma samples from which the concentration at each time point was measured by LC-MS/MS.
row,concentration at 0.083 h,Compound
1,18500 ng/mL,"C=C(CC(=O)O[C@H](C)CCCCCC)C(=O)O [Intermediate 8, (R)-2-methylene-4-(octan-2-yloxy)-4-oxobutanoic acid]"

# Same assay, conditions: male, C57BL/6, po; mouse plasma, Example 112 dosed orally at 100 mg/kg (Intermediate 8 = metabolite), time 0.25 h; read-out: Example 112 and Intermediate 8 concentrations following oral administration
row,concentration at 0.25 h,Compound
1,19800 ng/mL,"C=C(CC(=O)O[C@H](C)CCCCCC)C(=O)O [Intermediate 8, (R)-2-methylene-4-(octan-2-yloxy)-4-oxobutanoic acid]"

# Same assay, conditions: male, C57BL/6, po; mouse plasma, Example 112 dosed orally at 100 mg/kg (Intermediate 8 = metabolite), time 0.5 h; read-out: Example 112 and Intermediate 8 concentrations following oral administration
row,concentration at 0.5 h,Compound
1,12800 ng/mL,"C=C(CC(=O)O[C@H](C)CCCCCC)C(=O)O [Intermediate 8, (R)-2-methylene-4-(octan-2-yloxy)-4-oxobutanoic acid]"

# Same assay, conditions: male, C57BL/6, po; mouse plasma, Example 112 dosed orally at 100 mg/kg (Intermediate 8 = metabolite), time 1 h; read-out: Example 112 and Intermediate 8 concentrations following oral administration
row,concentration at 1 h,Compound
1,4710 ng/mL,"C=C(CC(=O)O[C@H](C)CCCCCC)C(=O)O [Intermediate 8, (R)-2-methylene-4-(octan-2-yloxy)-4-oxobutanoic acid]"

# Same assay, conditions: male, C57BL/6, po; mouse plasma, Example 112 dosed orally at 100 mg/kg (Intermediate 8 = metabolite), time 2 h; read-out: Example 112 and Intermediate 8 concentrations following oral administration
row,concentration at 2 h,Compound
1,2160 ng/mL,"C=C(CC(=O)O[C@H](C)CCCCCC)C(=O)O [Intermediate 8, (R)-2-methylene-4-(octan-2-yloxy)-4-oxobutanoic acid]"

# Same assay, conditions: male, C57BL/6, po; mouse plasma, Example 112 dosed orally at 100 mg/kg (Intermediate 8 = metabolite), time 4 h; read-out: Example 112 and Intermediate 8 concentrations following oral administration
row,concentration at 4 h,Compound
1,719 ng/mL,"C=C(CC(=O)O[C@H](C)CCCCCC)C(=O)O [Intermediate 8, (R)-2-methylene-4-(octan-2-yloxy)-4-oxobutanoic acid]"

# Same assay, conditions: male, C57BL/6, po; mouse plasma, Example 112 dosed orally at 100 mg/kg (Intermediate 8 = metabolite), time 6 h; read-out: Example 112 and Intermediate 8 concentrations following oral administration
row,concentration at 6 h,Compound
1,614 ng/mL,"C=C(CC(=O)O[C@H](C)CCCCCC)C(=O)O [Intermediate 8, (R)-2-methylene-4-(octan-2-yloxy)-4-oxobutanoic acid]"

# Same assay, conditions: male, C57BL/6, po; mouse plasma, Example 112 dosed orally at 100 mg/kg (Intermediate 8 = metabolite), time 8 h; read-out: Example 112 and Intermediate 8 concentrations following oral administration
row,concentration at 8 h,Compound
1,132 ng/mL,"C=C(CC(=O)O[C@H](C)CCCCCC)C(=O)O [Intermediate 8, (R)-2-methylene-4-(octan-2-yloxy)-4-oxobutanoic acid]"

# Same assay, conditions: mouse plasma, Example 112 dosed orally at 100 mg/kg (Intermediate 8 = metabolite), time 24 h
row,Example 112 and Intermediate 8 concentrations following oral administration,Compound
1,BQL,"C=C(CC(=O)O[C@H](C)CCCCCC)C(=O)O [Intermediate 8, (R)-2-methylene-4-(octan-2-yloxy)-4-oxobutanoic acid]"

# Test system: NQO1
# Assay: NQO1 enzyme activation assay as a readout of NRF2 activation in THP-1 cells
# Format: cell-based
# Conditions: Homo sapiens, THP-1; percentage activation at top concentration, normalised to DMF (100%) and vehicle controls
# Protocol: NQO1 Enzyme Activation Assay as a Readout of NRF2 Activation in THP-1 Cellular Background
# NAD(P)H dehydrogenase [quinone] […] Induction of this gene is concomitant with the inhibition of proinflammatory cytokine transcription and suppression of the inflammatory response (Kobayashi E. H. et al., 2016). The NQO1 enzyme activation activities of compounds of formula (IW-1) were determined using a cellular based NQO1 activation assay (Abcam). The NQO1 activation assay was run in differentiated THP-1 cells (a human monocyte-like cell line) as described below. All reagents described are from Sigma-Aldrich unless specified otherwise. Compounds were prepared as 10 mM DMSO stocks.
# THP-1 cells were expanded as a suspension up to 80% confluence in appropriate growth medium. Cells were harvested, suspended, treated with phorbol 12-myristate 13-acetate (PMA) and plated according to the cell density required for each plate format over a 72 hr period (37° C./5% CO2).
# Following 72 hrs of THP-1 cell incubation, cellular medium was removed and replaced with fresh media. Working concentrations of compounds were prepared and pre-incubated for 30 minutes (37° C./5% CO2). Compound treatment was then applied to the PMA treated THP-1 cell plate followed by LPS treatment. A ‘low’ (DMSO vehicle only) control and ‘high’ (designated concentration of dimethyl fumarate) was applied to each plate at the point of compound treatment. Cells were subsequently incubated for a 48 hr period (37° C./5% C02) after which all NQO1 assay reagents were prepared according to the manufacturer's instructions. NQO1 extraction buffer was applied to PBS washed THP-1 cells and incubated on ice for 15 minutes to prepare THP-1 lysates for the NQO1 activity assay. THP-1 lysates were diluted 1:5 with PBS and treated with a 1:1 volume of kit prepared NQO1 Reaction Buffer. Absorbance was subsequently measured kinetically on an appropriate reader over a 6 minute period.
# For activation determination, the fold change in response per well was determined by first calculating the average NQO1 activation data for the vehicle control and then dividing the individual well response by the averaged NQO1 response for the vehicle control as shown below: Fold change=(Sample value)/MeanMin Where ‘Min’=vehicle control only
# The relative 50% activation concentration (EC50) was determined from the resulting fold change response curve. The maximum efficacy (Emax) was reported as the percentage activation calculated at the top concentration of compound used in the titration applied. If a full curve was unattainable preventing a correct curve fit, the Emax value was extrapolated using existing curve data. All percentage activation data were normalised to the DMF and vehicle controls, meaning the Emax represents the percentage […] achieved by a compound at a particular concentration relative to that achieved by DMF (set as the ‘High’ control and therefore representative of 100% activation).
row,Compound,Emax
1,"C=C(CC(=O)OCCCCCCCC)C(=O)OCCC(=O)N(C)C [Example 6, 1-(3-(dimethylamino)-3-oxopropyl) 4-octyl 2-methylenesuccinate]",154%
2,"C=C(CC(=O)OCCCC)C(=O)OCCS(C)(=O)=O [Example 7, 4-butyl 1-(2-(methylsulfonyl)ethyl) 2-methylenesuccinate]",78%
3,"C=C(CC(=O)OCCCC)C(=O)OCCC#N [Example 8, 1-(2-cyanoethyl) 4-butyl 2-methylenesuccinate]",152%
4,"C=C(CC(=O)OC)C(=O)OCCC#N [Example 10, 1-(2-cyanoethyl) 4-methyl 2-methylenesuccinate]",107%

# Same assay, conditions: Homo sapiens; differentiated THP-1 cells, LPS, 48 hr
row,EC50,Compound
1,30.6 µM,"C=C(CC(=O)OCCCCCCCC)C(=O)OCCC(=O)N(C)C [Example 6, 1-(3-(dimethylamino)-3-oxopropyl) 4-octyl 2-methylenesuccinate]"
2,7.3 µM,"C=C(CC(=O)OCCCC)C(=O)OCCS(C)(=O)=O [Example 7, 4-butyl 1-(2-(methylsulfonyl)ethyl) 2-methylenesuccinate]"
3,35.4 µM,"C=C(CC(=O)OCCCC)C(=O)OCCC#N [Example 8, 1-(2-cyanoethyl) 4-butyl 2-methylenesuccinate]"
4,15.2 µM,"C=C(CC(=O)OC)C(=O)OCCC#N [Example 10, 1-(2-cyanoethyl) 4-methyl 2-methylenesuccinate]"

# Test system: IL-1β cytokine output from THP-1s
# Assay: THP-1 AlphaLISA IL-1β cytokine assay
# Format: cell-based, human
# Conditions: Homo sapiens, THP-1, PMA-differentiated THP-1 cells, LPS 24 hr then Nigericin 1 hour; read-out: IL-1β (IC50)
# Outline: (§1)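 Cells are differentiated with PMA over 72 h, switched to 1% FBS medium and treated with compound for 30 min before LPS stimulation for 24 h. Nigericin is added for a final hour, and secreted cytokine is measured by AlphaLISA, with IC50 fitted from percent inhibition.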
row,IC50,Compound
1,12.8 µM,"C=C(CC(=O)OCCCCCCCC)C(=O)OCCC(=O)N(C)C [Example 6, 1-(3-(dimethylamino)-3-oxopropyl) 4-octyl 2-methylenesuccinate]"
2,16.7 µM,"C=C(CC(=O)OCCCC)C(=O)OCCS(C)(=O)=O [Example 7, 4-butyl 1-(2-(methylsulfonyl)ethyl) 2-methylenesuccinate]"
3,27.9 µM,"C=C(CC(=O)OC)C(=O)OCCC#N [Example 10, 1-(2-cyanoethyl) 4-methyl 2-methylenesuccinate]"

# Same assay, conditions: Homo sapiens, THP-1, Table 10; assay of Biological Example 1 (THP-1); read-out: IL-1β (IC50)
row,IC50,Compound
1,56.7 µM,"C=C(CC(=O)O[C@H](C)CCCCCC)C(=O)O [Intermediate 8, (R)-2-methylene-4-(octan-2-yloxy)-4-oxobutanoic acid]"

# Same assay, conditions: Table 10; assay of Biological Example 1 (THP-1)
row,Compound,IL-1β (IC50)
1,"C=C(CC(=O)O[C@H](C)CCCCCC)C(=O)O [Intermediate 8, (R)-2-methylene-4-(octan-2-yloxy)-4-oxobutanoic acid]",improved cytokine-lowering potencies compared to dimethyl itaconate

# Test system: NRF2
# Assay: NRF2 +/-GSH activation assay (DiscoverX PathHunter NRF2 translocation kit, U2OS cells)
# Format: cell-based
# Conditions: Homo sapiens, U2OS; Table 10; assay of Biological Example 5 (NRF2); read-out: EC50
# Outline: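 PathHunter U2OS cells, plated 24 hrs, measured NRF2 nuclear translocation by enzyme-fragment complementation luminescence after 6 hours compound exposure at 37 °C. For +GSH, compound was pre-incubated 30 minutes with GSH (6 mM working stock). EC50 from % activation normalised to dimethyl fumarate high control.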
row,EC50,Compound
1,20.4 µM,"C=C(CC(=O)O[C@H](C)CCCCCC)C(=O)O [Intermediate 8, (R)-2-methylene-4-(octan-2-yloxy)-4-oxobutanoic acid]"

# Same assay, conditions: Homo sapiens, U2OS; Table 10; assay of Biological Example 5 (NRF2); read-out: Emax
row,Compound,Emax
1,"C=C(CC(=O)O[C@H](C)CCCCCC)C(=O)O [Intermediate 8, (R)-2-methylene-4-(octan-2-yloxy)-4-oxobutanoic acid]",165%

# Test system: IL-6 cytokine output from THP-1s
# Assay: THP-1 AlphaLISA IL-6 cytokine assay
# Format: cell-based, human
# Conditions: Homo sapiens; PMA-differentiated THP-1 cells, LPS 24 hr then Nigericin 1 hour
# Outline: as §1
row,IC50,Compound
1,12.1 µM,"C=C(CC(=O)OCCCCCCCC)C(=O)OCCC(=O)N(C)C [Example 6, 1-(3-(dimethylamino)-3-oxopropyl) 4-octyl 2-methylenesuccinate]"
2,12 µM,"C=C(CC(=O)OCCCC)C(=O)OCCS(C)(=O)=O [Example 7, 4-butyl 1-(2-(methylsulfonyl)ethyl) 2-methylenesuccinate]"
3,7.6 µM,"C=C(CC(=O)OC)C(=O)OCCC#N [Example 10, 1-(2-cyanoethyl) 4-methyl 2-methylenesuccinate]"

# Same assay, conditions: Homo sapiens; Table 10; assay of Biological Example 1 (THP-1)
row,IC50,Compound
1,23.7 µM,"C=C(CC(=O)O[C@H](C)CCCCCC)C(=O)O [Intermediate 8, (R)-2-methylene-4-(octan-2-yloxy)-4-oxobutanoic acid]"

# Same assay, conditions: Table 10; assay of Biological Example 1 (THP-1)
row,Compound,IL-6 (IC50)
1,"C=C(CC(=O)O[C@H](C)CCCCCC)C(=O)O [Intermediate 8, (R)-2-methylene-4-(octan-2-yloxy)-4-oxobutanoic acid]",improved cytokine-lowering potencies compared to dimethyl itaconate
